According to patent publication US20130065818A1, “Arylamide Compounds And Compositions And Uses Thereof” (POLYMEDIX, priority 2006, published 2013):
“And” between values parts separate entries of the source, which are not always exact repeats. Equal entries are not always repeated.

Legend:
Test in all cases: MIC, 25 ocular isolates, broth microdilution (Example 8)
Format in all cases: cell-based
Haemophilus influenzae = conditions: for Minimum MIC / Maximum MIC / Mean MIC: descriptive statistics, n=25; for Maximum MIC / Mean MIC / Median MIC: >64 replaced with 128; for Median MIC: n=25 isolates
Experimental: (§1) HTM (Haemophilus Test Medium) in tubes was inoculated with 25 ocular isolates of Haemophilus influenzae plus two controls (Staphylococcus aureus and E. coli) and incubated at 37° C. overnight. Additionally, Mueller-Hinton Broth in tubes was inoculated with two controls (Staphylococcus aureus and E. coli) and incubated at 37° C. overnight on a shaker set at 250 rpm.
(§2) On the day of testing, a 640 μg/ml (1280 μg/ml for Serratia marcescens and Pseudomonas aeruginosa) concentration was prepared from a 1% stock solution in 0.01% acetic acid, 0.2% BSA in polypropylene tubes.
(§3) Serial doubling dilutions in 0.01% acetic acid, 0.2% BSA in 96 well polypropylene plates, which are used as reservoirs for the inoculation of the test plates, were carried out to obtain serial dilutions of test agents at 10 times the required test concentrations: 640, 320, 160, 80, 40, 20, 10, 5, 2.5, 1.25, and 0.625 μg/ml (1280, 640, 320, 160, 80, 40, 20, 10, 5, 2.5, and 1.25 μg/ml for Serratia marcescens and Pseudomonas aeruginosa).
(§4) Ten μl of diluted 10×test agents was added to each well of one row of the 96 well polypropylene plates from column 2 to column 12 (column 1 is a control for bacteria alone, with no peptide). Test agent concentrations in columns 2-12 were as follows: 64, 32, 16, 8, 4, 2, 1, 0.5, 0.25, 0.125, and 0.0625 μg/ml (128, 64, 32, 16, 8, 4, 2, 1, 0.5, 0.25, and 0.125 μg/ml for Serratia marcescens and Pseudomonas aeruginosa). The same peptide was in each of the 8 rows. One plate contained dilutions of one test agent and 8 bacterial isolates.
On the day of testing, the overnight bacterial broth cultures of Haemophilus species was diluted in 5 ml of trypticase soy broth to yield turbidity equal to a 0.5 McFarland standard. The final inoculum for MIC testing for Haemophilus species was achieved by placing 0.1 ml of the turbidity adjusted sample to 5 ml of HTM medium.
(§5) Ninety μl of the bacterial suspensions was dispensed in each well from column 1 to column 12. Each bacterial isolate was placed in one row of a 96 well polypropylene plate containing the test agents. The plates were placed on shaker at 15 minutes at room temperature, and then incubated at 37° C. overnight. MICs were determined visually as the lowest concentration of drug that inhibits visible bacterial growth.

[1] = tested on: Staphylococcus epidermidis (Coagulase-negative Staphylococcus) fluoroquinolone-susceptible; conditions: 25 isolates; <0.0625 was Replaced with 0.03125
Experimental: (§6) • Mueller-Hinton Broth in tubes was inoculated with 25 ocular isolates of Staphylococcus aureus fluoroquinolone-susceptible, Staphylococcus aureus fluoroquinolone-resistant, Staphylococcus epidermidis (Coagulase-negative Staphylococcus) fluoroquinolone-susceptible, Staphylococcus epidermidis (Coagulase-negative Staphylococcus) fluoroquinolone-resistant, Pseudomonas aeruginosa and Serratia marcescens, plus two controls (Staphylococcus aureus and E. coli) and incubated at 37° C. overnight on a shaker set at 250 rpm.
as §2, §3, §4
(§7) On the day of testing, the overnight bacterial broth cultures of Staphylococcus aureus fluoroquinolone-susceptible, Staphylococcus aureus fluoroquinolone-resistant, Staphylococcus epidermidis (Coagulase-negative Staphylococcus) fluoroquinolone-susceptible, Staphylococcus epidermidis (Coagulase-negative Staphylococcus) fluoroquinolone-resistant, Serratia marcescens, and Pseudomonas aeruginosa, plus two controls (Staphylococcus aureus and E. coli) were diluted in 5 ml of trypticase soy broth to yield turbidity equal to a 0.5 McFarland standard. The final inoculum for MIC testing for Staphylococcus aureus fluoroquinolone-susceptible, Staphylococcus aureus fluoroquinolone-resistant, Staphylococcus epidermidis (Coagulase-negative Staphylococcus) fluoroquinolone-susceptible, Staphylococcus epidermidis (Coagulase-negative Staphylococcus) fluoroquinolone-resistant, Serratia marcescens, and Pseudomonas aeruginosa was achieved by placing 0.05 ml of the turbidity adjusted sample to 5 ml of Mueller-Hinton broth.
as §5

[2] = tested on: Staphylococcus aureus fluoroquinolone-resistant; conditions: 25 isolates
Experimental: as §6, §2, §3, §4, §7, §5

Pseudomonas aeruginosa = conditions: 25 isolates; >128 was Replaced with 256
Experimental: as §6, §2, §3, §4, §7, §5

Serratia marcescens = conditions: 25 isolates; >128 was Replaced with 256
Experimental: as §6, §2, §3, §4, §7, §5

[3] = tested on: Staphylococcus epidermidis (Coagulase-negative Staphylococcus) fluoroquinolone-resistant; conditions: 25 isolates; <0.0625 was Replaced with 0.03125
Experimental: as §6, §2, §3, §4, §7, §5

Streptococcus pneumoniae = conditions: 25 isolates; >64 was Replaced with 128
Experimental: as §1, with “Mueller-Hinton Broth supplemented with 2% lysed horse blood” for “HTM (Haemophilus Test Medium)”, “Streptococcus pneumoniae, Streptococcus viridans group, and Moraxella species (including Moraxella catarrhalis)” for “Haemophilus influenzae”
as §2, §3, §4
(§8) On the day of testing, the overnight bacterial broth cultures of Streptococcus pneumoniae, Streptococcus viridans and Moraxella species (including Moraxella catarrhalis) plus two controls (Staphylococcus aureus and E. coli) were diluted in 5 ml of trypticase soy broth to yield turbidity equal to a 0.5 McFarland standard. The final inoculum for MIC testing for Streptococcus pneumoniae, Streptococcus viridans and Moraxella species (including Moraxella catarrhalis) was achieved by placing 0.1 ml of the turbidity adjusted sample to 5 ml of Mueller-Hinton broth containing 2% lysed horse red blood cells.
as §5

[4] = tested on: Streptococcus viridans group; conditions: 25 isolates; >64 was Replaced with 128
Experimental: as §1, with “Mueller-Hinton Broth supplemented with 2% lysed horse blood” for “HTM (Haemophilus Test Medium)”, “Streptococcus pneumoniae, Streptococcus viridans group, and Moraxella species (including Moraxella catarrhalis)” for “Haemophilus influenzae”
as §2, §3, §4, §8, §5

[5] = tested on: Moraxella species (including Moraxella catarrhalis); conditions: for Minimum MIC / Maximum MIC / Mean MIC: descriptive statistics, n=25; for Maximum MIC / Mean MIC / Median MIC: >64 replaced with 128; for Median MIC: n=25 isolates
Experimental: as §1, with “Mueller-Hinton Broth supplemented with 2% lysed horse blood” for “HTM (Haemophilus Test Medium)”, “Streptococcus pneumoniae, Streptococcus viridans group, and Moraxella species (including Moraxella catarrhalis)” for “Haemophilus influenzae”
as §2, §3, §4, §8, §5

[6] = tested on: Staphylococcus aureus fluoroquinolone-susceptible; parameters: Mean MIC (Descriptive Statistics) / Minimum MIC (Descriptive Statistics) / Maximum MIC (Descriptive Statistics): unit: µg/mL; conditions: 25 isolates
Experimental: as §6, §2, §3, §4, §7, §5

Row | Structure (SMILES) | Minimum MIC (Haemophilus influenzae) [µg/mL] | Maximum MIC (Haemophilus influenzae) [µg/mL] | Mean MIC (Haemophilus influenzae) [µg/mL] | Median MIC (Haemophilus influenzae) | Maximum MIC (Descriptive Statistics) [1] | Mean MIC (Descriptive Statistics) [1] | Median MIC (Descriptive Statistics / Mann-Whitney) [1] | Minimum MIC (Descriptive Statistics) [1] | Maximum MIC (Descriptive Statistics) [2] | Mean MIC (Descriptive Statistics) [2] | Median MIC (Descriptive Statistics / Mann-Whitney) [2] | Minimum MIC (Descriptive Statistics) [2] | Maximum MIC (Descriptive Statistics) (Pseudomonas aeruginosa) [µg/mL] | Mean MIC (Descriptive Statistics) (Pseudomonas aeruginosa) [µg/mL] | Median MIC (Descriptive Statistics / Mann-Whitney) (Pseudomonas aeruginosa) | Minimum MIC (Descriptive Statistics) (Pseudomonas aeruginosa) [µg/mL] | Maximum MIC (Descriptive Statistics) (Serratia marcescens) [µg/mL] | Mean MIC (Descriptive Statistics) (Serratia marcescens) [µg/mL] | Median MIC (Descriptive Statistics / Mann-Whitney) (Serratia marcescens) | Minimum MIC (Descriptive Statistics) (Serratia marcescens) [µg/mL] | also measured
1 | N=C(N)NCCCCC(=O)Nc1cc(C(F)(F)F)cc(NC(=O)c2cc(C(=O)Nc3cc(C(F)(F)F)cc(NC(=O)CCCCNC(=N)N)c3O[C@@H]3CCNC3)ncn2)c1O[C@@H]1CCNC1 [Olig 4] | 2.00 | 32.00 | 8.56 | 8.00 µg/mL | 0.2500 | 0.1388 | 0.125 | 0.0313 | 1.0000 | 0.3200 | 0.2500 | 0.1250 | 8 | 3.54 | 4.00 | 0.5 | 32 | 12.4 | 8.00 | 0.25 | Maximum MIC (Descriptive Statistics) [3]: 0.2500; Mean MIC (Descriptive Statistics) [3]: 0.1300; Median MIC (Descriptive Statistics / Mann-Whitney) [3]: 0.125; Minimum MIC (Descriptive Statistics) [3]: 0.0313; Maximum MIC (Descriptive Statistics) (Streptococcus pneumoniae): 128 µg/mL; Mean MIC (Descriptive Statistics) (Streptococcus pneumoniae): 6.08 µg/mL; Median MIC (Descriptive Statistics / Mann-Whitney) (Streptococcus pneumoniae): 1.00; Minimum MIC (Descriptive Statistics) (Streptococcus pneumoniae): 0.5 µg/mL; Maximum MIC (Descriptive Statistics) [4]: 32 µg/mL; Mean MIC (Descriptive Statistics) [4]: 5.84 µg/mL; Median MIC (Descriptive Statistics / Mann-Whitney) [4]: 4.00; Minimum MIC (Descriptive Statistics) [4]: 1 µg/mL; Minimum MIC [5]: 0.50 µg/mL; Maximum MIC [5]: 128.00 µg/mL; Mean MIC [5]: 21.42 µg/mL; Median MIC [5]: 4.00 µg/mL; Maximum MIC (Descriptive Statistics) [6]: 0.5000; Mean MIC (Descriptive Statistics) [6]: 0.2850; Median MIC (Descriptive Statistics / Mann-Whitney) [6]: 0.2500; Minimum MIC (Descriptive Statistics) [6]: 0.1250
2 | N=C(N)NCCCCC(=O)Nc1cc(C(F)(F)F)cc(NC(=O)c2cnc(C(=O)Nc3cc(C(F)(F)F)cc(NC(=O)CCCCNC(=N)N)c3SCCN)cn2)c1SCCN [Olig 5] | 2.0 | 128.0 | 48.6 | 16.0 µg/mL and 16.00 µg/mL | 0.2500 | 0.1375 | 0.125 | 0.0313 | 0.5000 | 0.2900 | 0.2500 | 0.1250 | 256 | 85.9 | 64.0 | 4 | 256 | 233 | 256.0 | 8 | Maximum MIC (Descriptive Statistics) [3]: 0.5000; Mean MIC (Descriptive Statistics) [3]: 0.1475; Median MIC (Descriptive Statistics / Mann-Whitney) [3]: 0.125; Minimum MIC (Descriptive Statistics) [3]: 0.0313; Maximum MIC (Descriptive Statistics) (Streptococcus pneumoniae): 128 µg/mL; Mean MIC (Descriptive Statistics) (Streptococcus pneumoniae): 10.6 µg/mL; Median MIC (Descriptive Statistics / Mann-Whitney) (Streptococcus pneumoniae): 4.00; Minimum MIC (Descriptive Statistics) (Streptococcus pneumoniae): 0.5 µg/mL; Maximum MIC (Descriptive Statistics) [4]: 128 µg/mL; Mean MIC (Descriptive Statistics) [4]: 36.8 µg/mL; Median MIC (Descriptive Statistics / Mann-Whitney) [4]: 16.00; Minimum MIC (Descriptive Statistics) [4]: 0.5 µg/mL; Minimum MIC [5]: 0.13 µg/mL; Maximum MIC [5]: 128.00 µg/mL; Mean MIC [5]: 13.26 µg/mL; Median MIC [5]: 0.50 µg/mL; Maximum MIC (Descriptive Statistics) [6]: 0.5000; Mean MIC (Descriptive Statistics) [6]: 0.2450; Median MIC (Descriptive Statistics / Mann-Whitney) [6]: 0.2500; Minimum MIC (Descriptive Statistics) [6]: 0.1250
